Structures can show the parent of a compound that is named as a salt.

MCH-R1, sequence (Q8JZL2 whole entry): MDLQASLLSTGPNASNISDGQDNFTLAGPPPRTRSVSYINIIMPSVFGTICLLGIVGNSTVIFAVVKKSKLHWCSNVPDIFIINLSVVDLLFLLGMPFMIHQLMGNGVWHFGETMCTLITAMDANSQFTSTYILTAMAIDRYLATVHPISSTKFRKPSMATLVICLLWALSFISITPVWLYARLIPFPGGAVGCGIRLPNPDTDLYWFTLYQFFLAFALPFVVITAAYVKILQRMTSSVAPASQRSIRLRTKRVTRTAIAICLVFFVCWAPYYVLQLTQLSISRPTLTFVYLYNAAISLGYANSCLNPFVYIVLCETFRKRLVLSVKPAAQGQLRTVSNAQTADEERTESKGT

The first experiment concerns the target MCH-R1 (Mus musculus, UniProt Q8JZL2). The experiment in a line: MCH-R1 antagonist activity, comparison of stereoisomers (assay not specified). To be noted: qualitative comparison of isomers.
With `C[C@H](c1ccc2ccccc2c1)N1CCC(Nc2cc(=O)oc3ccc(Cl)cc23)CC1` [II-119, (R)-6-Chloro-4-[1-(1-naphthalen-2-yl-ethyl)-piperdin-4-ylamino]-chromen-2-one], the “MCH-R1 antagonist activity, relative between stereoisomers” value is listed as “more active than II-120”.
The same measure, in the same setting: under `O=c1cc(NC2CC3CCC(C2)N3Cc2ccc3c(c2)OCO3)c2cc(Cl)ccc2o1` (stereo not drawn) [II-122, (exo)-4-(8-Benzo[1,3]dioxol-5-ylmethyl-8-aza-bicyclo[3.2.1]oct-3-ylamino)-6-chloro-chromen-2-one] stands “more active than the endo isomer II-123”.

In a further experiment the target is T1, murine MCHR (Mus musculus, UniProt Q8JZL2).
T1 construct: expressed in transfected cells; host or cells: HEK293
T1 sequence (Q8JZL2 whole entry): as above
The experiment in a line: Assay for release of intracellular calcium (FLIPR, Fluo-4), inhibition of MCH-induced Ca++ flux. To be noted: test compound at a dose of 10 μM, HEK293 cells expressing the murine MCHR, read-out: inhibition of MCH (MCH induced Ca++ flux / fluorescence). The format is cell-based. The method in brief: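 HEK293 cells expressing murine MCHR were loaded with Fluo-4AM (2.5 μM) and given compound (40 μM stock in 4% DMSO), with 3 min monitoring for agonism. They were then challenged with mouse MCH (12 nM as added) and FLIPR fluorescence followed 3 min more. % inhibition of MCH-induced Ca++ flux was calculated against baseline and no-compound signals.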
Consider `CCOc1cccc(CN2CCC(Nc3cc(=O)oc4ccc(OC)cc34)CC2)c1` [II-97, 4-[1-(3-Ethoxy-benzyl)-piperidin-4-ylamino]-6-methoxy-chromen-2-one trifluoroacetate], for which the inhibition at 10 µM was no less than 50%.
In the case of `Cc1cc(C)c2oc(=O)cc(NC3CCN(Cc4ccc5c(c4)OCO5)CC3)c2c1` [II-98, 4-(1-Benzo[1,3]dioxol-5-ylmethyl-piperidin-4-ylamino)-6,8-dimethyl-chromen-2-one], the inhibition at 10 µM is no less than 50%.
The same measure, in the same setting: under `NC(=O)c1cccc(CN2CCC(Nc3cc(=O)oc4ccc(Cl)cc34)CC2)c1` [II-99, 3-[4-(6-Chloro-2-oxo-2H-chromen-4-ylamino)-piperidin-1-ylmethyl]-benzamide] stands no less than 50%; under `C=Cc1ccc2oc(=O)cc(NC3CCN(Cc4ccc5ocnc5c4)CC3)c2c1` [II-100, 4-(1-Benzooxazol-5-ylmethyl-piperidin-4-ylamino)-6-vinyl-chromen-2-one], no less than 50%.
As for `COc1ccc2oc(=O)cc(NC3CCN(Cc4cccc5sccc45)CC3)c2c1` [II-101, 4-{[1-(1-benzothien-4-ylmethyl)piperidin-4-yl]amino}-6-methoxy-2H-chromen-2-one], the inhibition at 10 µM was no less than 50%.
Still for that read-out and setting: under `COc1ccc2oc(=O)cc(NC3CCN(Cc4ccccc4)CC3)c2c1` [II-102, 4-(1-Benzyl-piperidin-4-ylamino)-6-methoxy-chromen-2-one trifluoroacetate] stands no less than 50%; under `CCc1ccc2oc(=O)cc(NC3CCN(Cc4ccc(C)c(C)c4)CC3)c2c1` [II-103, 4-{1-(3,4-Dimethyl-benzyl)-piperidin-4-ylamino}-6-ethyl-chromen-2-one], no less than 50%.
Regarding `COc1ccc2oc(=O)cc(NC3CCN(Cc4ccc(C)c(F)c4)CC3)c2c1` [II-105, 4-[1-(3-Fluoro-4-methyl-benzyl)-piperidin-4-ylamino]-6-methoxy-chromen-2-one trifluoroacetate], the inhibition at 10 µM was no less than 50%.
Still for that read-out and setting: under `COc1ccc2oc(=O)cc(NC3CCN(Cc4ccc5c(ccn5C)c4)CC3)c2c1` [II-111, 6-Methoxy-4-[N-methylindole-5-ylmethyl-piperidin-4-ylamino]chromen-2-one] stands no less than 50%; under `COc1ccc2oc(=O)cc(NC3CCN(Cc4ccc5ncccc5c4)CC3)c2c1` [II-112, 6-Methoxy-4-(1-quinolin-6-ylmethyl-piperidin-4-ylamino)-chromen-2-one], no less than 50%; under `CC(c1ccc(O)c(F)c1)N1CCC(Nc2cc(=O)oc3ccc(Cl)cc23)CC1` (stereo not shown) [II-113, 6-Chloro-4-{1-[1-(3-fluoro-4-hydroxy-phenyl)-ethyl]-piperidin-4-ylamino}-chromen-2-one], no less than 50%.
On the same count and under the same terms, under `N#Cc1ccc2oc(=O)cc(NC3CCN(Cc4ccc5occc5c4)CC3)c2c1` [II-114, 4-(1-Benzofuran-5-ylmethyl-piperidin-4-ylamino)-2-oxo-2H-chromene-6-carbonitrile] stands no less than 50%; under `COc1ccc2oc(=O)cc(NC3CCN(Cc4ccc(OCCCN5CCCCC5)c(Cl)c4)CC3)c2c1` [II-115, 4-{1-[3-Chloro-4-(3-piperidin-1-yl-propoxy)-benzyl]-piperidin-4-ylamino}-6-methoxy-chromen-2-one; Double TFA Salt], no less than 50%; under `O=c1cc(NC2CCN(Cc3ccc4c(c3)OCO4)CC2)c2cc(Cl)c(Cl)cc2o1` [II-117, (4-Benzo[1,3]dioxol-5-ylmethyl-piperidin-4-ylamino)-6,7-dichloro-chromen-2-one], no less than 50%.
Still for that read-out and setting: under `C[C@@H](c1ccc2ccccc2c1)N1CCC(Nc2cc(=O)oc3ccc(Cl)cc23)CC1` [II-120, (S)-6-Chloro-4-[1-(1-naphthalen-2-yl-ethyl)-piperdin-4-ylamino]-chromen-2-one] stands no less than 50%.
For the compound `O=c1cc(NC2CCN(Cc3ccc4c(c3)OCO4)CC2)c2cc(OC(F)F)ccc2o1` [II-125, 4-(1-Benzo[1,3]dioxol-5-ylmethyl-piperidin-4-ylamino)-6-difluoromethoxy-chromen-2-one], the inhibition at 10 µM was no less than 50%.
Same read-out and setting: with `COc1ccc2oc(=O)cc(NC3CCN(C/C=C/c4ccccc4)CC3)c2c1` [III-1, 6-Methoxy-4-[1-(3-phenyl-allyl)-piperidin-4-ylamino] chromen-2-one] the figure was no less than 50%; with `O=c1cc(NC2CCN(C/C=C/c3ccccc3Cl)CC2)c2cc(Cl)ccc2o1` [III-2, 6-Chloro-4-{1-[3-(2-chloro-phenyl)-allyl]-piperidin-4-ylamino}-chromen-2-one], no less than 50%.
Still for that read-out and setting: under `O=c1cc(NC2CCN(C/C=C/c3ccccc3)CC2)c2cc(Cl)ccc2o1` [III-3, 6-Chloro-4-[1-(3-phenyl-allyl)-piperidin-4-ylamino]-chromen-2-one] stands no less than 50%; under `O=c1cc(NC2CCN(C/C=C/c3ccccc3)CC2)c2cc(Br)ccc2o1` [III-5, 6-Bromo-4-[1-(3-phenyl-allyl)-piperidine-4-ylamino]-chromen-2-one], no less than 50%; under `Cc1ccc2oc(=O)cc(NC3CCN(C/C=C/c4ccccc4)CC3)c2c1` [III-6, 6-Methyl-4-[1-(3-phenyl-allyl)-piperidin-4-ylamino]-chromen-2-one], no less than 50%.
The same measure, in the same setting: with `O=c1cc(NC2CCN(C/C=C/c3cccc(Cl)c3)CC2)c2ccccc2o1` [III-9, 4-{1-[3-(3-Chloro-phenyl)-allyl]-piperidin-4-ylamino}-chromen-2-one] the figure was no less than 50%.
In the case of `Cc1ccc2oc(=O)cc(NC3CCN(C/C=C/c4ccccc4[N+](=O)[O-])CC3)c2c1` [III-12, 6-Methyl-4-{1-[3-(2-nitro-phenyl)-allyl]-piperidin-4-ylamino}-chromen-2-one], the inhibition at 10 µM is no less than 50%.
Same read-out and setting: with `O=c1cc(NC2CCN(C/C=C/c3ccccc3F)CC2)c2ccccc2o1` [III-14, 4-{1-[3-(2-Fluoro-phenyl)-allyl]-piperidin-4-ylamino}-chromen-2-one] the figure was no less than 50%.
Same read-out and setting: under `C/C(=C\c1ccccc1)CN1CCC(Nc2cc(=O)oc3ccc(Cl)cc23)CC1` [III-18, 6-Chloro-4-[1-(2-methyl-3-phenyl-allyl)-piperidin-4-ylamino]-chromen-2-one] stands no less than 50%; under `COc1ccccc1/C=C/CN1CCC(Nc2cc(=O)oc3ccc(C)cc23)CC1` [III-19, 4-{1-[3-(2-Methoxy-phenyl)-allyl]-piperidin-4-ylamino}-6-methyl-chromen-2-one], no less than 50%.
On the same count and under the same terms, under `O=c1cc(NC2CCN(C/C=C/c3ccccc3)CC2)c2ccccc2o1` [III-24, 4-[1-(3-Phenyl-allyl)-piperidin-4-ylamino]-chromen-2-one] stands no less than 50%; under `O=c1cc(NC2CCN(C/C=C/c3ccccc3F)CC2)c2cc(Cl)ccc2o1` [III-56, 6-Chloro-4-{1-[3-(2-fluoro-phenyl)-allyl]-piperidin-4-ylamino}-chromen-2-one], no less than 50%.
For `N#Cc1ccc2oc(=O)cc(NC3CCN(C/C=C/c4ccccc4)CC3)c2c1` [III-59, 2-Oxo-4-[1-(3-phenyl-allyl)-piperidin-4-ylamino]-2H-chromene-6-carbonitrile], the inhibition at 10 µM is no less than 50%.
